According to US20260022142A1, “MACROCYCLIC IMMUNOMODULATORS” (Bristol-Myers Squibb Company, priority 2022, published 2026):
Bridge positions count the residues as written; N and C are the ends. Square brackets hold non-standard residues; d marks the D form. Peptide text beside a SMILES is read from it. * marks the point of attachment. Phe(4-COOH) = N[C@@H](Cc1ccc(C(=O)O)cc1)C(=O)O; Bip = N[C@@H](Cc1ccc(-c2ccccc2)cc1)C(=O)O; Phe(3-Me) = Cc1cccc(C[C@H](N)C(=O)O)c1; Cha = N[C@@H](CC1CCCCC1)C(=O)O; Carboxymethyl = O=C(O)C*; Orn = NCCC[C@H](N)C(=O)O; Aun = NCCCCCCCCCCC(=O)O; Dab = NCC[C@H](N)C(=O)O; Dap = NC[C@H](N)C(=O)O; AEEA = NCCOCCOCC(=O)O

Biological target: T1, PD-1/PD-L1 interaction (PE-labeled human PD-L1-Ig binding to Jurkat cell line over-expressing human PD-1) (Homo sapiens, UniProt Q15116)
T1 construct: expressed in transfected cells; host or cells: Jurkat
T1 sequence (Q15116 25-288): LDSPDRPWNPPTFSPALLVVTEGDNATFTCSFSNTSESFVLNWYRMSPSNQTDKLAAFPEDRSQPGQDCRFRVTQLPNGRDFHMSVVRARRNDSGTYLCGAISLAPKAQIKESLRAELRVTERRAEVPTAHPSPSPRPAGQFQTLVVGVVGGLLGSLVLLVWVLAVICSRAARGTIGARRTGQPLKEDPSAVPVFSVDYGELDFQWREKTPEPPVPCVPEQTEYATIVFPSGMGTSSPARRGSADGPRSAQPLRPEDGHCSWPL
Assay: Jurkat-PD-1 Cell Binding High-Content Screening Assay (CBA)
Type: cell-based
Conditions: Jurkat cell line over-expressing human PD-1; PE-labeled PD-L1-Ig 20 nM final; read-out: Jurkat hPD1-PDL1 IC50
In short: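 Jurkat cells stably over-expressing human PD-1 were seeded in DMEM with 10% fetal calf serum and pre-incubated with compound for 2 h at 37° C. PE-labeled human PD-L1-Ig was then added at 20 nM final for 1 hour, after which cells were fixed with paraformaldehyde, Hoechst-stained and imaged by high-content microscopy.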

Row | SMILES | IC50 [nM]
1 | Cc1cccc(C[C@@H]2NC(=O)[C@H](CC(=O)O)NC(=O)[C@H](Cc3ccc(OCC(=O)O)cc3)NC(=O)[C@H](CN)NC(=O)CSC[C@@H](C(=O)N[C@@H](CCCCN)C(=O)NCCOCCOCC(=O)NCCCCCCCCCCC(=O)O)NC(=O)[C@H](CCCN)NC(=O)[C@H](C(C)C)NC(=O)[C@H](CC3CCCCC3)NC(=O)[C@H](CCN)NC(=O)[C@@H](CC(C)C)NC(=O)[C@H](CCCN)NC(=O)[C@H](C(C)C)NC(=O)[C@H](Cc3ccc(-c4ccccc4)cc3)NC(=O)[C@H](C(C)C)NC2=O)c1 [Compound 2527] ({CH2CO}-[Dap]Y(Carboxymethyl)D[Phe(3-Me)]V[Bip]V[Orn][dL][Dab][Cha]V[Orn]CK[AEEA][Aun]-OH; thioether N-14) | 6.8
2 | Cc1cccc(C[C@@H]2NC(=O)[C@H](CC(=O)O)NC(=O)[C@H](Cc3ccc(OCC(=O)O)cc3)NC(=O)[C@H](CN)NC(=O)CSC[C@@H](C(=O)N[C@@H](CCCCN)C(=O)NCCOCCOCC(=O)NCCCCCCCCCCC(=O)O)NC(=O)[C@H](CCCNC(=N)N)NC(=O)[C@H](C(C)C)NC(=O)[C@H](CC3CCCCC3)NC(=O)[C@H](CCN)NC(=O)[C@@H](CC(C)C)NC(=O)[C@H](CCCN)NC(=O)[C@H](C(C)C)NC(=O)[C@H](Cc3ccc(-c4ccccc4)cc3)NC(=O)[C@H](C(C)C)NC2=O)c1 [Compound 2528] ({CH2CO}-[Dap]Y(Carboxymethyl)D[Phe(3-Me)]V[Bip]V[Orn][dL][Dab][Cha]VRCK[AEEA][Aun]-OH; thioether N-14) | 7.8
3 | CC(C)C[C@H]1NC(=O)[C@H](CCCN)NC(=O)[C@H](C(C)C)NC(=O)[C@H](Cc2ccc(-c3ccccc3)cc2)NC(=O)[C@H](C(C)C)NC(=O)[C@H](Cc2c[nH]c3ccccc23)NC(=O)[C@H](CC(=O)O)NC(=O)[C@H](Cc2ccc(OCC(=O)O)cc2)NC(=O)[C@H](Cc2ccc(OCC(=O)O)cc2)NC(=O)CSC[C@@H](C(=O)N[C@@H](CCCCN)C(=O)NCCOCCOCC(=O)NCCCCCCCCCCC(=O)O)NC(=O)[C@H](CCCN)NC(=O)[C@H](C(C)C)NC(=O)[C@H](CC2CCCCC2)NC(=O)[C@H](CCN)NC1=O [Compound 2529] ({CH2CO}-Y(Carboxymethyl)Y(Carboxymethyl)DWV[Bip]V[Orn][dL][Dab][Cha]V[Orn]CK[AEEA][Aun]-OH; thioether N-14) | 12.7
4 | CC(C)C[C@H]1NC(=O)[C@H](CCCN)NC(=O)[C@H](C(C)C)NC(=O)[C@H](Cc2ccc(-c3ccccc3)cc2)NC(=O)[C@H](C(C)C)NC(=O)[C@H](Cc2c[nH]c3ccccc23)NC(=O)[C@H](CC(=O)O)NC(=O)[C@H](Cc2ccc(OCC(=O)O)cc2)NC(=O)[C@H](Cc2ccc(OCC(=O)O)cc2)NC(=O)CSC[C@@H](C(=O)N[C@@H](CCCCN)C(=O)NCCOCCOCC(=O)NCCCCCCCCCCC(=O)O)NC(=O)[C@H](CN)NC(=O)[C@H](C(C)C)NC(=O)[C@H](CC2CCCCC2)NC(=O)[C@H](CCN)NC1=O [Compound 2530] ({CH2CO}-Y(Carboxymethyl)Y(Carboxymethyl)DWV[Bip]V[Orn][dL][Dab][Cha]V[Dap]CK[AEEA][Aun]-OH; thioether N-14) | 10.9
5 | CC(C)C[C@H]1NC(=O)[C@H](CCCN)NC(=O)[C@H](C(C)C)NC(=O)[C@H](Cc2ccc(-c3ccccc3)cc2)NC(=O)[C@H](C(C)C)NC(=O)[C@H](Cc2c[nH]c3ccccc23)NC(=O)[C@H](CC(=O)O)NC(=O)[C@H](Cc2ccc(C(=O)O)cc2)NC(=O)[C@H](Cc2ccc(OCC(=O)O)cc2)NC(=O)CSC[C@@H](C(=O)N[C@@H](CCCCN)C(=O)NCCCCCCCCCCC(=O)O)NC(=O)[C@H](CCCCN)NC(=O)[C@H](C(C)C)NC(=O)[C@H](CC2CCCCC2)NC(=O)[C@H](CCN)NC1=O [Compound 2531] ({CH2CO}-Y(Carboxymethyl)[Phe(4-COOH)]DWV[Bip]V[Orn][dL][Dab][Cha]VKCK[Aun]-OH; thioether N-14) | 22.2
6 | CC(C)C[C@H]1NC(=O)[C@H](CCCN)NC(=O)[C@H](C(C)C)NC(=O)[C@H](Cc2ccc(-c3ccccc3)cc2)NC(=O)[C@H](C(C)C)NC(=O)[C@H](Cc2c[nH]c3ccccc23)NC(=O)[C@H](CC(=O)O)NC(=O)[C@H](Cc2ccc(OCC(=O)O)cc2)NC(=O)[C@H](Cc2ccc(OCC(=O)O)cc2)NC(=O)CSC[C@@H](C(=O)N[C@@H](CCCCN)C(=O)NCCCCCCCCCCC(=O)O)NC(=O)[C@H](CCCNC(=N)N)NC(=O)[C@H](C(C)C)NC(=O)[C@H](CC2CCCCC2)NC(=O)[C@H](CCN)NC1=O [Compound 2532] ({CH2CO}-Y(Carboxymethyl)Y(Carboxymethyl)DWV[Bip]V[Orn][dL][Dab][Cha]VRCK[Aun]-OH; thioether N-14) | 34.6
7 | CC(C)C[C@H]1NC(=O)[C@H](CCCN)NC(=O)[C@H](C(C)C)NC(=O)[C@H](Cc2ccc(-c3ccccc3)cc2)NC(=O)[C@H](C(C)C)NC(=O)[C@H](Cc2c[nH]c3ccccc23)NC(=O)[C@H](CC(=O)O)NC(=O)[C@H](Cc2ccc(OCC(=O)O)cc2)NC(=O)[C@H](CN)NC(=O)CSC[C@@H](C(=O)N[C@@H](CCCCN)C(=O)NCCCCCCCCCCC(=O)O)NC(=O)[C@H](CCCCN)NC(=O)[C@H](C(C)C)NC(=O)[C@H](CC2CCCCC2)NC(=O)[C@H](CCN)NC1=O [Compound 2533] ({CH2CO}-[Dap]Y(Carboxymethyl)DWV[Bip]V[Orn][dL][Dab][Cha]VKCK[Aun]-OH; thioether N-14) | 23.8
8 | Cc1cccc(C[C@@H]2NC(=O)[C@H](CC(=O)O)NC(=O)[C@H](Cc3ccc(OCC(=O)O)cc3)NC(=O)[C@H](CN)NC(=O)CSC[C@@H](C(=O)N[C@@H](CCCCN)C(=O)NCCCCCCCCCCC(=O)O)NC(=O)[C@H](CN)NC(=O)[C@H](C(C)C)NC(=O)[C@H](CC3CCCCC3)NC(=O)[C@H](CCN)NC(=O)[C@@H](CC(C)C)NC(=O)[C@H](CCCN)NC(=O)[C@H](C(C)C)NC(=O)[C@H](Cc3ccc(-c4ccccc4)cc3)NC(=O)[C@H](C(C)C)NC2=O)c1 [Compound 2534] ({CH2CO}-[Dap]Y(Carboxymethyl)D[Phe(3-Me)]V[Bip]V[Orn][dL][Dab][Cha]V[Dap]CK[Aun]-OH; thioether N-14) | 6.3
9 | Cc1cccc(C[C@@H]2NC(=O)[C@H](CC(=O)O)NC(=O)[C@H](Cc3ccc(OCC(=O)O)cc3)NC(=O)[C@H](CN)NC(=O)CSC[C@@H](C(=O)N[C@@H](CCCCN)C(=O)NCCCCCCCCCCC(=O)O)NC(=O)[C@H](CCCN)NC(=O)[C@H](C(C)C)NC(=O)[C@H](CC3CCCCC3)NC(=O)[C@H](CCN)NC(=O)[C@@H](CC(C)C)NC(=O)[C@H](CCCN)NC(=O)[C@H](C(C)C)NC(=O)[C@H](Cc3ccc(-c4ccccc4)cc3)NC(=O)[C@H](C(C)C)NC2=O)c1 [Compound 2535] ({CH2CO}-[Dap]Y(Carboxymethyl)D[Phe(3-Me)]V[Bip]V[Orn][dL][Dab][Cha]V[Orn]CK[Aun]-OH; thioether N-14) | 6.4
10 | Cc1cccc(C[C@@H]2NC(=O)[C@H](CC(=O)O)NC(=O)[C@H](Cc3ccc(OCC(=O)O)cc3)NC(=O)[C@H](CN)NC(=O)CSC[C@@H](C(=O)N[C@@H](CCCCN)C(=O)NCCCCCCCCCCC(=O)O)NC(=O)[C@H](CCCNC(=N)N)NC(=O)[C@H](C(C)C)NC(=O)[C@H](CC3CCCCC3)NC(=O)[C@H](CCN)NC(=O)[C@@H](CC(C)C)NC(=O)[C@H](CCCN)NC(=O)[C@H](C(C)C)NC(=O)[C@H](Cc3ccc(-c4ccccc4)cc3)NC(=O)[C@H](C(C)C)NC2=O)c1 [Compound 2536] ({CH2CO}-[Dap]Y(Carboxymethyl)D[Phe(3-Me)]V[Bip]V[Orn][dL][Dab][Cha]VRCK[Aun]-OH; thioether N-14) | 9.5
11 | CC(C)C[C@H]1NC(=O)[C@H](CCCN)NC(=O)[C@H](C(C)C)NC(=O)[C@H](Cc2ccc(-c3ccccc3)cc2)NC(=O)[C@H](C(C)C)NC(=O)[C@H](Cc2c[nH]c3ccccc23)NC(=O)[C@H](CC(=O)O)NC(=O)[C@H](Cc2ccc(OCC(=O)O)cc2)NC(=O)[C@H](Cc2ccc(OCC(=O)O)cc2)NC(=O)CSC[C@@H](C(=O)N[C@@H](CCCCN)C(=O)NCCCCCCCCCCC(=O)O)NC(=O)[C@H](CCCN)NC(=O)[C@H](C(C)C)NC(=O)[C@H](CC2CCCCC2)NC(=O)[C@H](CCN)NC1=O [Compound 2537] ({CH2CO}-Y(Carboxymethyl)Y(Carboxymethyl)DWV[Bip]V[Orn][dL][Dab][Cha]V[Orn]CK[Aun]-OH; thioether N-14) | 18.9
12 | CC(C)C[C@H]1NC(=O)[C@H](CCCN)NC(=O)[C@H](C(C)C)NC(=O)[C@H](Cc2ccc(-c3ccccc3)cc2)NC(=O)[C@H](C(C)C)NC(=O)[C@H](Cc2c[nH]c3ccccc23)NC(=O)[C@H](CC(=O)O)NC(=O)[C@H](Cc2ccc(OCC(=O)O)cc2)NC(=O)[C@H](Cc2ccc(OCC(=O)O)cc2)NC(=O)CSC[C@@H](C(=O)N[C@@H](CCCCN)C(=O)NCCCCCCCCCCC(=O)O)NC(=O)[C@H](CN)NC(=O)[C@H](C(C)C)NC(=O)[C@H](CC2CCCCC2)NC(=O)[C@H](CCN)NC1=O [Compound 2538] ({CH2CO}-Y(Carboxymethyl)Y(Carboxymethyl)DWV[Bip]V[Orn][dL][Dab][Cha]V[Dap]CK[Aun]-OH; thioether N-14) | 13.6
13 | CC(C)C[C@H]1NC(=O)[C@H](CCCN)NC(=O)[C@H](C(C)C)NC(=O)[C@H](Cc2ccc(-c3ccccc3)cc2)NC(=O)[C@H](C(C)C)NC(=O)[C@H](Cc2c[nH]c3ccccc23)NC(=O)[C@H](CC(=O)O)NC(=O)[C@H](Cc2ccc(C(=O)O)cc2)NC(=O)[C@H](Cc2ccc(OCC(=O)O)cc2)NC(=O)CSC[C@@H](C(=O)NCCOCCOCC(=O)N[C@@H](CCN)C(=O)NCCCCCCCCCCC(=O)O)NC(=O)[C@H](CCCCN)NC(=O)[C@H](C(C)C)NC(=O)[C@H](CC2CCCCC2)NC(=O)[C@H](CCN)NC1=O [Compound 2539] ({CH2CO}-Y(Carboxymethyl)[Phe(4-COOH)]DWV[Bip]V[Orn][dL][Dab][Cha]VKC[AEEA][Dab][Aun]-OH; thioether N-14) | 5.3
